The values that follow come from ChEMBL document CHEMBL6087447, “Impact of Linker Composition on VHL PROTAC Cell Permeability” (J Med Chem, 2025).

The structures appear in SMILES notation.

This data set can be described thus: Permeability of the compound in PBS buffer at pH 7.4 incubated for 16 hrs by LC-MS/MS based PAMPA assay. To be noted: read-out: permeability. In kind it is ADME. A general note: PAMPA measures passive passage across an artificial lipid membrane.

As to `Cc1ncsc1-c1ccc(CNC(=O)[C@@H]2C[C@@H](O)CN2C(=O)[C@@H](NC(=O)CN(C)CCCCCCOc2cnc3c(C4CCN(C(=O)c5ccc(OC(F)(F)F)cc5)CC4)ncnc3c2)C(C)(C)C)cc1`, the Papp at 16 h is 6.67 ×10⁻⁶ cm/s.

Take `Cc1ncsc1-c1ccc(CNC(=O)[C@@H]2C[C@@H](O)CN2C(=O)[C@@H](NC(=O)COCc2cn(CCOc3cnc4c(C5CCN(C(=O)c6ccc(OC(F)(F)F)cc6)CC5)ncnc4c3)nn2)C(C)(C)C)cc1`: the Papp at 16 h worked out at 7.94 ×10⁻⁶ cm/s.

Take `Cc1ncsc1-c1ccc(CNC(=O)[C@@H]2C[C@@H](O)CN2C(=O)[C@@H](NC(=O)Cc2ccc(OCCOc3cnc4c(C5CCN(C(=O)c6ccc(OC(F)(F)F)cc6)CC5)ncnc4c3)cc2)C(C)(C)C)cc1`: the Papp at 16 h worked out at 7.56 ×10⁻⁶ cm/s.

On to `Cc1ncsc1-c1ccc(CNC(=O)[C@@H]2C[C@@H](O)CN2C(=O)[C@@H](NC(=O)COCCOCCNC(=O)COc2cnc3c(C4CCN(C(=O)c5ccc(OC(F)(F)F)cc5)CC4)ncnc3c2)C(C)(C)C)cc1`, for which the Papp at 16 h was found to be 6.3 ×10⁻⁶ cm/s.

Take `Cc1ncsc1-c1ccc(CNC(=O)[C@@H]2C[C@@H](O)CN2C(=O)[C@@H](NC(=O)Cc2ccc(OCCOc3cnc4c(C5CCN(C(=O)c6ccc(OC(F)(F)F)cc6)CC5)ncnc4c3)cn2)C(C)(C)C)cc1`: the Papp at 16 h came out at 7.28 ×10⁻⁶ cm/s.

`Cc1ncsc1-c1ccc(CNC(=O)[C@@H]2C[C@@H](O)CN2C(=O)[C@@H](NC(=O)CCCCCCCCOc2cnc3c(C4CCN(C(=O)c5ccc(OC(F)(F)F)cc5)CC4)ncnc3c2)C(C)(C)C)cc1`: the Papp at 16 h was determined as 8.29 ×10⁻⁶ cm/s.

Consider `Cc1ncsc1-c1ccc(CNC(=O)[C@@H]2C[C@@H](O)CN2C(=O)[C@@H](NC(=O)CCOCCOCCOc2cnc3c(C4CCN(C(=O)c5ccc(OC(F)(F)F)cc5)CC4)ncnc3c2)C(C)(C)C)cc1`, for which the Papp at 16 h came to 5.42 ×10⁻⁶ cm/s.

As to `Cc1ncsc1-c1ccc(CNC(=O)[C@@H]2C[C@@H](O)CN2C(=O)[C@@H](NC(=O)CN2CCC(CCCOc3cnc4c(C5CCN(C(=O)c6ccc(OC(F)(F)F)cc6)CC5)ncnc4c3)CC2)C(C)(C)C)cc1`, the Papp at 16 h was 6.9 ×10⁻⁶ cm/s.

Regarding `Cc1ncsc1-c1ccc(CNC(=O)[C@@H]2C[C@@H](O)CN2C(=O)[C@@H](NC(=O)CCOCCNC(=O)COc2cnc3c(C4CCN(C(=O)c5ccc(OC(F)(F)F)cc5)CC4)ncnc3c2)C(C)(C)C)cc1`, the Papp at 16 h is 6.21 ×10⁻⁶ cm/s.
